Experimental findings from patent publication US12622917B2, “High-activity Wnt pathway inhibitor compound” (ADLAI NORTYE BIOPHARMA CO., LTD., priority 2020, dated 2026) are described below.

Usually IC50 stands for the concentration needed to halve the response being measured.

What all share (type): cell-based
The test system of test [1] is Colo205-LUC-TCF/LEF M1 reporter cell line (Wnt pathway). As to the kind of experiment: Colo205-LUC-TCF/LEF M1 reporter gene (luciferase) inhibition. The conditions noted are these: 4 hours incubation, luciferase readout. The method in brief: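 Luminescent readout of TCF/LEF-regulated luciferase after a 4 h, 37° C compound exposure in a stable Colo205 reporter clone (10,000 cells/well). Serial 3-fold dilutions started at 20 uM; IC50 derived using DMSO-treated cells and no-cell wells as controls.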
In general terms: Reporter assays use an easily measured gene product as a stand-in for the process of interest.

The test system of test [2] is Colo205. As to the kind of experiment: Proliferation inhibition, Wnt mutant cell line Colo205. The following applies: Colo205, Wnt pathway-dependent, 96 hours, read-out: Antiproliferative IC50 Colo205. The method in brief:
(§1)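 IC50 for growth inhibition came from a 96-hour incubation with serially diluted compound (3-fold, top 20 uM final), with cells seeded at 1000 per well the day before and read by a Promega viability assay.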

The test system of test [3] is DU4475. Briefly: Proliferation inhibition, Wnt mutant cell line DU4475. The conditions noted are these: DU4475, Wnt pathway-dependent, 96 hours, read-out: Antiproliferative IC50 DU4475. In a few lines:
as §1

Test [4] relates to Hela. As to the kind of experiment: Proliferation inhibition, non-Wnt mutant control cell line Hela. The following applies: Wnt-independent control cell line, 96 hours, read-out: Antiproliferative IC50 Hela. From the text: The cell lines used in the experiment are Colo205 and DU4475 cell lines whose Wnt pathway is continuously activated and whose proliferation is Wnt pathway-dependent; while the BELA and RKO cell lines, whose Wnt pathway is not activated under normal circumstances and the proliferation is independent of Wnt pathway, as control cell lines. It is Judged that the inhibitory effect of the compound of the present invention on Wnt-dependent proliferation is not caused by other non-specific toxicity.
Treat the Colo205, Du4475, HELA and RKO cell lines cultured in their respective mediums in the logarithmic growth phase, collect the cells and prepare a uniform cell suspension of known concentration, and then add it to the 96-well cell culture plate Cell suspension, so that each well contains 1000 cells. Put it into a 5% CO2 incubator and incubate at 37° C. for 20-24 h. On the second day, the fully dissolved, 3-fold serially diluted compound was added to each cell culture well, so that the final maximum concentration in the cell culture well was 20 uM, and the culture was continued for 96 hours. In this test, Promega's cell viability detection test is used for detection. The more the cells proliferate, the stronger the final signal intensity will be. The detection instrument is SpectraMax, full wavelength mode. The wells only added with DMSO were used as positive control wells, and the wells that were not inoculated with cells were used as negative control wells. […] The IC50 value of cell proliferation inhibition was used to evaluate the inhibitory effect of the compound on the Wnt pathway and the toxic effect on normal cells (Table 2).

The subject of test [5] is RKO. Briefly: Proliferation inhibition, non-Wnt mutant control cell line RKO. The following applies: Wnt-independent control cell line, 96 hours, read-out: Antiproliferative IC50 RKO. In a few lines:
as §1

Read-outs that look alike come from different tables or passages of the source.

With `C[C@H]1C(=O)N2CCCc3nc(NCc4ccc(Oc5ccnc(C(F)(F)F)c5)nc4)nc(c32)N1C` [100 (W239)], the IC50 in test [1] was 50 nM; in test [2] (Homo sapiens, COLO 205), 59 nM; in test [3] (Homo sapiens, DU-4475), 52 nM; in test [4] (Homo sapiens) it was over 10000 nM; in test [5] (Homo sapiens), over 10000 nM.
For `C[C@H]1C(=O)N2CCCc3nc(NCc4ccc(Oc5ccc(C(F)(F)F)nc5)cc4)nc(c32)N1C` [101 (W213)], the IC50 in test [1] was determined as 47 nM; in test [2] (Homo sapiens, COLO 205), 86 nM; in test [3] (Homo sapiens, DU-4475), 73 nM; in test [4] (Homo sapiens), 6980 nM; in test [5] (Homo sapiens) it was 3930 nM.
Taken in the same sequence, the figures for `C[C@H]1Cn2ccc3nc(NCc4ccc(Oc5ccc(C(F)(F)F)nc5)nc4)nc(c32)N1C` [77 (W86)] were 8 nM, 4.7 nM, 5.1 nM, 2920 nM and 4010 nM.
The matching figures for `C[C@H]1Cn2ccc3nc(NCc4cnn(Cc5ccc(C(F)(F)F)nc5)c4)nc(c32)N1CC(F)(F)F` [70 (W55)]: 12 nM, 13.1 nM, 13.1 nM, 1410 nM and 1730 nM.
In the case of `C[C@H]1Cn2ccc3nc(NCc4ccc(OCCOCC(F)(F)F)nc4)nc(c32)N1C` [79 (W95)], the IC50 in test [1] was determined as 20 nM; in test [2] (Homo sapiens, COLO 205), 43.9 nM; in test [3] (Homo sapiens, DU-4475) it was 23.7 nM; in test [4] (Homo sapiens), 3670 nM; in test [5] (Homo sapiens), 6890 nM.
On to `[2H]c1cc2nc(NCc3cnn(Cc4ccc(C(F)(F)F)nc4)c3)nc3c2n1C[C@H](C)N3C` [72 (W57)], for which the IC50 in test [1] is 7 nM; in test [2] (Homo sapiens, COLO 205), 4.8 nM; in test [3] (Homo sapiens, DU-4475), 2.8 nM; in test [4] (Homo sapiens) it was over 10000 nM; in test [5] (Homo sapiens) it was 3230 nM.
The matching figures for `C[C@H]1CN(C)c2nc(NCc3cnn(Cc4ccc(C(F)(F)F)nc4)c3)nc3cc(C(F)F)n1c23` [Example 21, (S)-8-(difluoromethyl)-4,6-dimethyl-N-((1-((6-(trifluoromethyl)pyridin-3-yl)methyl)-1H-pyridine Azol-4-yl)methyl)-5,6-dihydro-4H-pyrrolo[3,2,1-de]pteridin-2-amine]: 30 nM, 97 nM, 73 nM, over 10000 nM and 3030 nM.
As to `C[C@H]1C(=O)N2CCCc3nc(NCc4cnn(Cc5ccc(F)cc5)c4)nc(c32)N1C` [Example 15, (S)-2-(((1-(4-fluorobenzyl)-1H-pyrazol-4-yl)methyl)amino)-4,5-dimethyl-4,5,9,10-tetrahydro-6H,8H-pyrido[3,2,1-de]pteridin-6-one], the IC50 in test [1] was 53 nM; in test [2] (Homo sapiens, COLO 205), 41 nM; in test [3] (Homo sapiens, DU-4475), 44 nM; in test [4] (Homo sapiens), over 10000 nM; in test [5] (Homo sapiens), over 10000 nM.
Regarding `Cc1cn2c3c(nc(NCc4cnn(Cc5ccc(F)cc5)c4)nc13)N(C)[C@@H](C)C2` [65 (W32)], the IC50 in test [1] is 20 nM; in test [2] (Homo sapiens, COLO 205), 43.5 nM; in test [3] (Homo sapiens, DU-4475), 41.7 nM; in test [4] (Homo sapiens) it was 3490 nM; in test [5] (Homo sapiens), 1720 nM.
With `C[C@H]1CCn2ccc3nc(NCc4cnn(Cc5ccc(F)cc5)c4)nc(c32)N1C` [63 (W22)], the IC50 in test [1] turned out to be 23 nM; in test [2] (Homo sapiens, COLO 205) it was 14.6 nM; in test [3] (Homo sapiens, DU-4475), 36.3 nM; in test [4] (Homo sapiens) it was 2590 nM; in test [5] (Homo sapiens), 3040 nM.
Turning to `C[C@H]1Cn2ccc3nc(NCc4ccc(Oc5ccc(C(F)(F)F)nc5)cc4)nc(c32)N1C` [78 (W87)], the IC50 in test [1] was 28 nM; in test [2] (Homo sapiens, COLO 205), 27.8 nM; in test [3] (Homo sapiens, DU-4475), 26.3 nM; in test [4] (Homo sapiens), 914 nM; in test [5] (Homo sapiens) it was 1420 nM.
As for `CN1CC(F)(F)Cn2ccc3nc(NCc4cnn(Cc5ccc(C(F)(F)F)nc5)c4)nc1c32` [Example 26, 8,8-difluoro-6-methyl-N-((1-((6-(trifluoromethyl)pyridin-3-yl)methyl)-1H-pyrazol-4-yl)methyl)-6,7,8,9-tetrahydro-3,5,6,9a-tetraazabenzo[cd]azulene-4-amine], the IC50 is 19 nM in test [1]; 35 nM in test [2] (Homo sapiens, COLO 205); 28 nM in test [3] (Homo sapiens, DU-4475); over 10000 nM in test [4] (Homo sapiens); over 10000 nM in test [5] (Homo sapiens).
In the case of `C[C@H]1Cn2c(C(F)F)cc3nc(NCc4cnn(Cc5ccc(C(F)(F)F)nc5)c4)nc(c32)N1C` [Example 22, (S)-8-(difluoromethyl)-4,5-dimethyl-N-((1-((6-(trifluoromethyl)pyridin-3-yl)methyl)-1H-pyridine Azol-4-yl)methyl)-5,6-dihydro-4H-pyrrolo[3,2,1-de]pteridin-2-amine], the IC50 in test [1] was 10 nM; in test [2] (Homo sapiens, COLO 205), 22 nM; in test [3] (Homo sapiens, DU-4475) it was 19 nM; in test [4] (Homo sapiens), over 10000 nM; in test [5] (Homo sapiens), 5420 nM.
Consider `C[C@H]1Cn2ccc3nc(NCc4cnn(Cc5ccc(F)cc5)c4)nc(c32)N1C` [61 (W2)], for which the half-maximal inhibitory concentration (IC50) was found to be 2 nM in test [1]; 5.5 nM in test [2] (Homo sapiens, COLO 205); 11.8 nM in test [3] (Homo sapiens, DU-4475); 4170 nM in test [4] (Homo sapiens); 3440 nM in test [5] (Homo sapiens).
For `CN1c2nc(NCc3cnn(Cc4ccc(C(F)(F)F)nc4)c3)nc3ccn(c23)C[C@@H]1C1CC1` [75 (W77)], the IC50 turned out to be 15 nM in test [1]; 9.2 nM in test [2] (Homo sapiens, COLO 205); 6.7 nM in test [3] (Homo sapiens, DU-4475); 3860 nM in test [4] (Homo sapiens); 4260 nM in test [5] (Homo sapiens).
Taken in the same sequence, the figures for `C[C@H]1Cn2ccc3nc(NCc4cnn(CC5CCC(F)(F)CC5)c4)nc(c32)N1C` [83 (W116)] were 10 nM, 5.1 nM, 5.1 nM, 4900 nM and 7470 nM.
The matching figures for `CC(C)N1C[C@H](C)n2ccc3nc(NCc4cnn(Cc5ccc(C(F)(F)F)nc5)c4)nc1c32` [Example 23, (S)-4-isopropyl-6-methyl-N-((1-((6-(trifluoromethyl)pyridin-3-yl)methyl)-1H-pyrazol-4-yl)methyl)-5,6-dihydro-4H-pyrrolo[3,2,1-de]pteridin-2-amine]: 11 nM, 16 nM, 15 nM, over 10000 nM and 3380 nM.
The matching figures for `CN1c2nc(NCc3cnn(Cc4ccc(C(F)(F)F)nc4)c3)nc3ccn(c23)C[C@@H]1CO` [71 (W56)]: 20 nM, 13.5 nM, 16.7 nM, over 10000 nM and over 10000 nM.
As to `C[C@H]1Cn2ccc3nc(NCc4cnn(CCCC(F)(F)F)c4)nc(c32)N1C` [81 (W105)], the IC50 in test [1] was 17 nM; in test [2] (Homo sapiens, COLO 205), 33.4 nM; in test [3] (Homo sapiens, DU-4475), 19.3 nM; in test [4] (Homo sapiens) it was over 10000 nM; in test [5] (Homo sapiens), over 10000 nM.
Regarding `C[C@H]1CN(C)c2nc(NCc3cnn(Cc4ccc(C(F)(F)F)nc4)c3)nc3ccn1c23` [Example 19, (S)-4,6-dimethyl-N-((1-((6-(trifluoromethyl)pyridin-3-yl)methyl)-1H-pyrazol-4-yl)methyl)-5,6-dihydro-4H-pyrrolo[3,2,1-de]pteridin-2-amine], the IC50 is 9 nM in test [1]; 8 nM in test [2] (Homo sapiens, COLO 205); 9 nM in test [3] (Homo sapiens, DU-4475); over 10000 nM in test [4] (Homo sapiens); over 10000 nM in test [5] (Homo sapiens).
“(S)-6,7-dimethyl-4-(((1-((6-(trifluoromethyl)pyridin-3-yl)methyl)-1H-pyrazol-4-yl)methyl)amino)-7,8-dihydro-3,5,6,9a-tetraazabenzo[cd]azulene-9(6H)-one [Example 6]”: the IC50 is 57 nM in test [1]; 46 nM in test [2]; 59 nM in test [3]; over 10000 nM in test [4]; over 10000 nM in test [5].
Consider `C[C@H]1C(=O)N2CCCc3nc(NCc4ccc(Cn5ccc(C(F)(F)F)n5)nc4)nc(c32)N1C` [92 (W232)], for which the IC50 in test [2] (Homo sapiens, COLO 205) was 81 nM; in test [3] (Homo sapiens, DU-4475) it was 80 nM; in test [4] (Homo sapiens), over 10000 nM; in test [5] (Homo sapiens), over 10000 nM.
